# Results as given in ChEMBL document CHEMBL5465560, “Selectivity Literature for EUbOPEN Chemogenomic Library” (2024).
# Tests used:
# [1] = molecular target: T1, Tyrosine-protein kinase Mer (Homo sapiens) (UniProt Q12866); assay: Selectivity interaction (Kinase panel (Z-LYTE Assay)) EUB0001632a MERTK; conditions: at 10 µM
# T1 sequence (whole entry): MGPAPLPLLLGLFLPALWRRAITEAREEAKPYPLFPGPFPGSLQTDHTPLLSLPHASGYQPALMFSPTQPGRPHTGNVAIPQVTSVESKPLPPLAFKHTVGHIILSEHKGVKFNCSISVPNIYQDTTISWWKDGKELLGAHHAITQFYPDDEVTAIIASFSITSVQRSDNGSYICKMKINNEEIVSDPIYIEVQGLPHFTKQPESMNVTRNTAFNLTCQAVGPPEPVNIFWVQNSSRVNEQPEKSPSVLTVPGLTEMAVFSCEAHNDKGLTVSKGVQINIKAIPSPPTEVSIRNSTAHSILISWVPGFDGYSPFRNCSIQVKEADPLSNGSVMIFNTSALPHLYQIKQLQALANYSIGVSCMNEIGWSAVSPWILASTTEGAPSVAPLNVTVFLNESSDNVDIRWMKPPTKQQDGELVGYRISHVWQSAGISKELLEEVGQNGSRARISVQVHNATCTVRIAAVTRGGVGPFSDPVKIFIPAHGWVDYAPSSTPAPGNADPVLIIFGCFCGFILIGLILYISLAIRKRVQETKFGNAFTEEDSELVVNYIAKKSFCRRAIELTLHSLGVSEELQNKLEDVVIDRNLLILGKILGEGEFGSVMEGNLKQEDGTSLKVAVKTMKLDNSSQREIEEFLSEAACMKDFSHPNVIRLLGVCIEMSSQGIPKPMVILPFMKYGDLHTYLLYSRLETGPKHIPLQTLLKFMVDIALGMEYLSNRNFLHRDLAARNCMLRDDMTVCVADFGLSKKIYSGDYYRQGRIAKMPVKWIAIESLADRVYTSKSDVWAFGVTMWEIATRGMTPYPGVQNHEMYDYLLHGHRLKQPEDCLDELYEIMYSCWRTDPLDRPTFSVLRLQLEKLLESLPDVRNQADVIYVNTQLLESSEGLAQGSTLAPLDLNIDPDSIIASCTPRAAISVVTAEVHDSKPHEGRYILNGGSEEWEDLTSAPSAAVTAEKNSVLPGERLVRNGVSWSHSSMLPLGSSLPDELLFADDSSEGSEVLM
# [2] = molecular target: Cyclin-dependent kinase 14 (Homo sapiens) (UniProt O94921); assay: Selectivity interaction (KinomeScan (DiscoverX)) EUB0000607a CDK14; conditions: at 10 µM
# [3] = molecular target: T2, Serine/threonine-protein kinase D1 (Homo sapiens) (UniProt Q15139); assay: Selectivity interaction (KinomeScan (DiscoverX)) EUB0001049a PRKD1; conditions: at 1 µM
# T2 sequence (whole entry): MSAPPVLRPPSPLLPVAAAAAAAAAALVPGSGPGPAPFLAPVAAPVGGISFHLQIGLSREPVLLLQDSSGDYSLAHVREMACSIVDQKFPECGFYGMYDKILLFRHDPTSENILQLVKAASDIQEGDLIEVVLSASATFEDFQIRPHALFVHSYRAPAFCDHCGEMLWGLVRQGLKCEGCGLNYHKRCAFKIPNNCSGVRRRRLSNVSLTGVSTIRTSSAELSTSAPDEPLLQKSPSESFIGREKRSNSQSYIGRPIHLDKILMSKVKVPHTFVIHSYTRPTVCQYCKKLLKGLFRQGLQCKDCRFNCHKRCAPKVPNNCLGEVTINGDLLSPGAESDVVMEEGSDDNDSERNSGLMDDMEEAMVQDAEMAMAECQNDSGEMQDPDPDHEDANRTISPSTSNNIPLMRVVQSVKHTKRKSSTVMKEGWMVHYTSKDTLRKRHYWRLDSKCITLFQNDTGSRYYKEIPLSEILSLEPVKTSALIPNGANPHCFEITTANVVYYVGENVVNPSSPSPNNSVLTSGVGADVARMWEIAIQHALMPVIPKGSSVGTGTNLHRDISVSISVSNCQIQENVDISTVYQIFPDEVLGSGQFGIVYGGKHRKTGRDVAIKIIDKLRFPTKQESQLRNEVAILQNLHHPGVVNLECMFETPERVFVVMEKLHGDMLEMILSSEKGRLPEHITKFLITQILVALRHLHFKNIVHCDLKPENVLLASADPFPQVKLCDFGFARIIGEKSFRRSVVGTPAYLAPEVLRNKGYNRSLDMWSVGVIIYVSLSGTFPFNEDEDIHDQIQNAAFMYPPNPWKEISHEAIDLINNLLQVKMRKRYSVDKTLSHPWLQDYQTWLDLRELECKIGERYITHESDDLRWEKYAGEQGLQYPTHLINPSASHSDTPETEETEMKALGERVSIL
# [4] = molecular target: Dual specificity mitogen-activated protein kinase kinase 1 (Homo sapiens, UniProt Q02750); conditions: at 10 µM
# [5] = molecular target: T3, Tyrosine-protein kinase ZAP-70 (Homo sapiens) (UniProt P43403); assay: Selectivity interaction (Ambit KINOMEscan and KiNATiv profiling in Jurkat cells) EUB0000090b ZAP70; assay type: cell-based; conditions: at 1 µM
# T3 sequence (whole entry): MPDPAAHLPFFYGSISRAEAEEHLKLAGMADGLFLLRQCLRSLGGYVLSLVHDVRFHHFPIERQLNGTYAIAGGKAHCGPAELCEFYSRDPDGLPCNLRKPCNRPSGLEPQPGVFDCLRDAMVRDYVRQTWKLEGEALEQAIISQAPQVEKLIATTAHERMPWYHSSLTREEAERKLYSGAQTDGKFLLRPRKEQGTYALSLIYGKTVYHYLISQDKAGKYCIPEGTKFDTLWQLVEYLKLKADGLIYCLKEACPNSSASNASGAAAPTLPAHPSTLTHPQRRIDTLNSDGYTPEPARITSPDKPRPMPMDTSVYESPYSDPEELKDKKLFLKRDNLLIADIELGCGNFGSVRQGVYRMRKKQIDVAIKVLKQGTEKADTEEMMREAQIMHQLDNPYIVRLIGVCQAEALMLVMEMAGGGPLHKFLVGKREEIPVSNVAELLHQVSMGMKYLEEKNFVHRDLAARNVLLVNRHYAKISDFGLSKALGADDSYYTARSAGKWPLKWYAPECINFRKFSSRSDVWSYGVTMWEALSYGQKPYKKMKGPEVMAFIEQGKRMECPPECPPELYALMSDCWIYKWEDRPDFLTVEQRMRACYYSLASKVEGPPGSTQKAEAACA
# Dual specificity mitogen-activated protein kinase kinase 1, sequence (Q02750 whole entry): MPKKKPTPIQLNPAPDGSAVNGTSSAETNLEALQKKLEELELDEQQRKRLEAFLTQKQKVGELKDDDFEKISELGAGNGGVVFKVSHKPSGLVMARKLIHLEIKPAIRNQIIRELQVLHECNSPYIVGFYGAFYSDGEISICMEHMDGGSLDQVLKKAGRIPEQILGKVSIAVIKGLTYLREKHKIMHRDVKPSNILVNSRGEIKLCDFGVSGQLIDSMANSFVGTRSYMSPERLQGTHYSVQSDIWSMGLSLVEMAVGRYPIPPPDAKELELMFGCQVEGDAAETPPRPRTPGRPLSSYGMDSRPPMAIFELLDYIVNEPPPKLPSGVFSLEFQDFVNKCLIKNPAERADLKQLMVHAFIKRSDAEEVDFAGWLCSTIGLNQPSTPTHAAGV
# Cyclin-dependent kinase 14 (Homo sapiens), sequence (O94921 whole entry): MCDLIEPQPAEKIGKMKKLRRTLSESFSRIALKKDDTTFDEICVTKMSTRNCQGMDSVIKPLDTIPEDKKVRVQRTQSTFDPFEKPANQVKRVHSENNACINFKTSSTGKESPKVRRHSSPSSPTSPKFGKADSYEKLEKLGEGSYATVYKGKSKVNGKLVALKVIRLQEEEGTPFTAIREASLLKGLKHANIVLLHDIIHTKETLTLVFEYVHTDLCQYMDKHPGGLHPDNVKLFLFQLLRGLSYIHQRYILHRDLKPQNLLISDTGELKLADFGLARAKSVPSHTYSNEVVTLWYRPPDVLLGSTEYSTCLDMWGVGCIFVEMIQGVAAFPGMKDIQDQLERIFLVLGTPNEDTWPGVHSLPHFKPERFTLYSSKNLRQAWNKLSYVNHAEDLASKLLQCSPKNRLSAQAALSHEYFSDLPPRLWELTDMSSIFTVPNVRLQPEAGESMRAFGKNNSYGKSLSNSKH
compound,measurement,setting,value
Cn1cc(-n2cnc3c(NCc4nc5cc(Cl)c(Cl)cc5[nH]4)nc(N4CCOCC4)nc32)cn1,% of control,[1],4.55%
CNC(=O)Nc1ccc(-c2nc(N3CC4CCC(C3)O4)c3cnn(C4CCC5(CC4)OCCO5)c3n2)cc1,% of control,[2],94%
COc1cc(Nc2nc(C)cc(-c3cnn4nc(OC)ccc34)n2)cc(C(F)(F)F)c1,% of control,[3],100%
CC(=O)Nc1cccc(-n2c(=O)n(C3CC3)c(=O)c3c(Nc4ccc(I)cc4F)n(C)c(=O)c(C)c32)c1,% of control,[4],28%
CN(C)C/C=C/C(=O)Nc1ccc(C(=O)N2CCCC(Nc3ncc(Cl)c(-c4c[nH]c5ccccc45)n3)C2)cc1 (stereo not given),% of control,[5],86%
